Literature values, collected in patent US20120115828A1 (APEX LABORATORIES PRIVATE LIMITED, priority 2009, published 2012).

Solubility in alcohol (alcohol) | Solubility in chloroform | Solubility in water | Solubility in ethanol (95%) (ethanol (95%)) | Solubility in ether (ether) | Solubility in methanol (methanol) | Compound
slightly soluble | slightly soluble | insoluble | – | – | – | CC(=O)OCC(=O)[C@@]1(O)CC[C@H]2[C@@H]3CCC4=CC(=O)CC[C@]4(C)[C@H]3[C@@H](O)C[C@@]21C [Hydrocortisone Acetate]
– | slightly soluble | very slightly soluble | slightly soluble | very slightly soluble | freely soluble | Clc1ccc(COC(Cn2ccnc2)c2ccc(Cl)cc2Cl)c(Cl)c1 (centres unmarked) [Miconazole Nitrate, 1-[2-(2,4-Dichlorophenyl)-2-[(2,4-dichlorophenyl)methoxy]ethyl]-1H-imidazole]
